The results in this text go back to article PMC6718988, “Bioactivity and Bactericidal Mechanism of Histidine-Rich β-Hairpin Peptide Against Gram-Negative Bacteria” (International Journal of Molecular Sciences, 2019).

Values after ≈ are worked out from the molar mass of the structure shown. Where a SMILES comes first, the peptide text is derived from it. [ ]: non-standard residue; d: D form. Some results are limits rather than exact numbers.

For test [1], the system named is TNF-α production in RAW264.7 cells. The test can be described thus: Inhibition of endotoxin-induced inflammation (LPS-stimulated TNF-α production). It is filed as cell-based, murine. To be noted: 32 μM peptide, 100 ng/mL LPS, 18 h, 37 °C, ELISA. As to the method: TNF-α production by the RAW264.7 cells was stimulated with LPS to evaluate the LPS neutralization characteristics of the peptides. Briefly, (1.0–2.0) × 10^5 RAW264.7 cells were plated in 96-well plates and stimulated with LPS (100 ng/mL) for 18 h at 37 °C in the absence or presence of peptides (2–64 μM). The negative and positive controls were untreated cells and cells treated with LPS alone. The supernatant was used to evaluate the endotoxin neutralizing ability of the antimicrobial peptides by analyzing the TNF-α production using […] ELISA (Boster, Wuhan, China).
Background: ELISA stands for enzyme-linked immunosorbent assay.

Test [2] concerns E. coli ATCC25922. The test can be described thus: Salt sensitivity assay (MIC in presence of physiological salts). It counts as cell-based. On the set-up: unit not given here. The protocol: Bacteria were inoculated into MHB and incubated overnight at 37 °C until the bacteria were in log phase growth. Next, we corrected the bacterial concentration to approximately 1 × 10^5 CFU/mL using MHB. […] After incubation at 37 °C for 24 h, the absorbance was measured at 492 nm using a microplate reader (Tecan GENios F129004, Tecan, Austria). Broth containing microbes and […] were used as positive and negative controls, respectively. The lowest peptide concentration with no increase in absorbance compared to that of the negative control was defined as the MIC. The experiments were independently performed three times. The effects of salt ions on the antibacterial activities of the antimicrobial peptides were evaluated. Different salt ion concentrations were added to BSA peptide dilutions, and the next steps followed the MIC measurement method. […] These tests were independently repeated three times.

Test [3] concerns E. coli ATCC25922. The test can be described thus: Membrane depolarization (diSC3-5). It counts as cell-based. The note with it: E. coli ATCC25922, 0.5, 1 and 2×MIC. As to the method:
The effects of the antimicrobial peptides on the plasma membrane potential were determined used cell membrane potential-sensitive fluorescent dye diSC3-5. Briefly, E. coli ATCC25922 cells were incubated in MHB to mid-log phase at 37 °C, rinsed 3 times with HEPES buffer, adjusted to an OD600 of 0.05. Next, KCl was used to adjust the final concentration to 0.4 μM and diSC3-5 was added. The mixture was incubated for 30 min at 37 °C. The antibacterial peptides at concentrations of 0.5, 1 and 2×MIC were then added to a cuvette containing 2 mL of bacterial solution, and the fluorescence change was recorded from 0 to 600 s with an F-4500 fluorescence spectrophotometer (Hitachi, Tokyo, Japan) (excitation λ = 622 nm, emission λ = 670 nm). Bacteria without antimicrobial peptides were used to determine the background fluorescence.

Test [4] is described as follows: LPS binding assay (BODIPY-TR-cadaverine displacement). Also on record: species or system E. coli. The note with it: peptide concentration higher than 4 μM; 50 μg/mL LPS, 5 μg/mL BODIPY-TR cadaverine, Tris 50 mM pH 7.4; 100% = 10 μg/mL polymyxin B. As to the method: The abilities of the antimicrobial peptides to bind LPS were determined using the fluorescent dye BODIPY-TR-cadaverine (BC) substitution method. LPS (50 μg/mL) from E. coli O111:B4 was incubated with BC (5 μg/mL) in Tris buffer (50 mm, pH 7.4) for 4 h. Next, 50 μL of various concentrations of peptides (final concentration of 1–64 μM) and 50 μL of LPS-BC mixture were added to 96-well plates, and the fluorescence was measured using a fluorescence spectrophotometer (Infinite 200 pro, Tecan, China) at an excitation wavelength of 580 nm and an emission wavelength of 620 nm. Each test was performed three times. The values were converted to %∆F (AU) using the following equation:%ΔF (AU) = [(Fobs − F0)/(F100 − F0)] × 100 where Fobs is the fluorescence value measured in the presence of the peptide, F0 is the initial fluorescence of LPS with BC without the addition of peptides, F100 is the fluorescence value produced by adding 10 μg/mL polymyxin B.

Another test deals with S. pullorum C7913. Briefly: microbe, parasite or virus in culture. The note with it: C7913, 24 h. The protocol: (§1) The minimum inhibitory concentration (MIC) was measured using a broth microdilution method to determine the in vitro antimicrobial activity of the peptides. Bacteria were inoculated into MHB and incubated overnight at 37 °C until the bacteria were in log phase growth. Next, we corrected the bacterial concentration to approximately 1 × 10^5 CFU/mL using MHB. The peptides were added to 96-well plates containing 0.01% acetic acid and 0.2% bovine serum albumin at final concentrations ranging from 0.25 to 128 μM. After incubation at 37 °C for 24 h, the absorbance was measured at 492 nm using a microplate reader (Tecan GENios F129004, Tecan, Austria). Broth containing microbes and […] were used as positive and negative controls, respectively. The lowest peptide concentration with no increase in absorbance compared to that of the negative control was defined as the MIC. The experiments were independently performed three times.

The next test concerns P. aeruginosa ATCC27853. Briefly: microbe, parasite or virus in culture. The note with it: ATCC27853, 24 h. The protocol: as §1
Test [5] concerns methicillin-resistant S. aureus ATCC43300. The test can be described thus: microbe, parasite or virus in culture. To be noted: ATCC43300, 24 h. The protocol:
as §1

The subject of the next test is S. aureus ATCC29213. Briefly: microbe, parasite or virus in culture. To be noted: ATCC29213, 24 h. The protocol:
as §1

The test system of another test is E. coli K99. Briefly: microbe, parasite or virus in culture. The note with it: E. coli K99; MHB, about 1 × 10^5 CFU/mL, 37 °C, 24 h; three independent experiments. The protocol: as §1
For test [6], the system named is E. coli ATCC25922. Briefly: microbe, parasite or virus in culture. To be noted: ATCC25922, 24 h. The protocol: as §1
For the next test, the system named is E. coli K88. The test can be described thus: microbe, parasite or virus in culture. The note with it: E. coli K88; MHB, about 1 × 10^5 CFU/mL, 37 °C, 24 h; three independent experiments. As to the method: as §1
Another test relates to E. coli UB1005. The test can be described thus: microbe, parasite or virus in culture. The note with it: UB1005, 24 h. As to the method: as §1
Another test has as its system S. epidermidis ATCC12228. The test can be described thus: microbe, parasite or virus in culture. To be noted: ATCC12228, 24 h. As to the method: as §1

On to `CC(C)[C@H](NC(=O)CNC(=O)[C@H]1CCCN1C(=O)[C@@H](NC(=O)[C@H](Cc1c[nH]cn1)NC(=O)[C@@H](NC(=O)[C@H](Cc1c[nH]cn1)NC(=O)[C@@H](NC(=O)[C@H](CCCNC(=N)N)NC(=O)[C@@H](N)CCCNC(=N)N)C(C)C)C(C)C)C(C)C)C(=O)N[C@@H](Cc1c[nH]cn1)C(=O)N[C@H](C(=O)N[C@@H](Cc1c[nH]cn1)C(=O)N[C@H](C(=O)N[C@@H](CCCNC(=N)N)C(=O)N[C@@H](CCCNC(=N)N)C(N)=O)C(C)C)C(C)C` [HV2] (H-RRVHVHV[dP]GVHVHVRR-NH2; N-terminus assumed), for which the “neutralizing activity against LPS (TNF-α level)” value in test [1] is on record as about 100%. For the same compound, in the test with E. coli ATCC25922 [2] (E. coli ATCC25922, 4 μM FeCl3, unit not given), the “MIC, FeCl3” value is 4. For the same compound, the “MIC, NH4Cl” value with E. coli ATCC25922 [2] (E. coli ATCC25922, 6 μM NH4Cl, unit not given) is 4. For the same compound, the “MIC, ZnCl2” value in the test with E. coli ATCC25922 [2] (E. coli ATCC25922, 8 μM ZnCl2, unit not given) is recorded as 1. For the same compound, the “MIC, MgCl2” value with E. coli ATCC25922 [2] (E. coli ATCC25922, 1 mM MgCl2, unit not given) was 8. For the same compound, the “MIC, KCl” value with E. coli ATCC25922 [2] (E. coli ATCC25922, 4.5 mM KCl, unit not given) came out at 4. For the same compound, the “MIC, NaCl” value in the test with E. coli ATCC25922 [2] (E. coli ATCC25922, 150 mM NaCl, unit not given) is reported as 4. In addition, the “MIC, Control” value with E. coli ATCC25922 [2] (E. coli ATCC25922, absence of physiological salts, no unit printed in Table 3 (Table 2 MIC in μM)) was 8. Also, the “plasma membrane depolarization (diSC3-5 release)” value with E. coli ATCC25922 [3] is “more rapid and stronger plasma membrane depolarization relative to PG-1”. Further, in [4], the “LPS binding ability relative to binding activity of polymyxin B” value is on record as “higher than 60%”. Also, the MIC was 8 µM (≈ 15.5 µg/mL) against S. pullorum C7913; 8 µM (≈ 15.5 µg/mL) against P. aeruginosa ATCC27853; over 128 µM in test [5]; over 128 µM against S. aureus ATCC29213; 8 µM (≈ 15.5 µg/mL) against E. coli K99; 8 µM (≈ 15.5 µg/mL) against E. coli ATCC25922 [6]. Also, the figures for the MIC against E. coli K88, in the test on E. coli UB1005 and against S. epidermidis ATCC12228 were 4 µM (≈ 7.76 µg/mL), 8 µM (≈ 15.5 µg/mL) and over 128 µM, respectively.
